The star is where a group is joined. Cbz = O=C(OCc1ccccc1)*; CH2F = FC* A value given as a limit tells only on which side of the number the result lay.

The subject of one series is Th2 cytokines. Kind of series: Cytokines by Luminex in supernatants of day 16 mouse tumor fragments stimulated with PMA and ionomycin. The series is classed as in vivo, mice. To be noted: day 16 tumors; versus PBS group. As for the experimental part: (§1) NOD/SCID/β2 m^−/− mice ([…]) were sublethally irradiated (12 cGy/g body weight of 137Cs γ irradiation) the day before tumor implantation. Then 10 million Hs-578t breast cancer cells harvested from cultures were injected subcutaneously into the flanks. Mice were then reconstituted with 1 million monocyte-derived DCs (MDDCs) and autologous T cells. CD4^+ and CD8^+ T cells were positively selected from thawed PBMCs using magnetic selection according to the manufacturer's instructions (Miltenyi Biotec). The purity was routinely >90%. 10 million CD4^+ T cells and 10 million CD8^+ T cells were transferred at days 3, 6, and 9 after tumor implantation. MDDCs were generated from the adherent fraction of PBMCs by culturing with 100 ng/ml GM-CSF and 10 ng/ml IL-4 (R&D Systems). Anakinra (2 mg/kg body weight) or PBS were injected daily in peritumor area since day 3 after tumor engraftment. 200 ug TSLPR blocking antibody was given on day 3,6,9. In some experiments, TGF-13 blocking antibody was given on day 3,6,9. Tumor size was monitored every 2-3 d. Tumor volume (ellipsoid) was calculated as follows: ([short diameter]^2×long diameter)/2. On day 16, the tumors were harvested. In some experiments, only one time DCs and total T cells transfer was done. Cell suspension was obtained from breast cancer tissue of above mice. Cell suspensions were obtained by digestion with 2.5 mg/ml of collagenase D (Roche Diagnostics, Indianapolis, Ind.), and 200 U/ml of DNAse I (Sigma-Aldrich, St. Louis, Mo.) for 30 minutes at 37° C. Washed three times and analyzed with FACS-CantoII (Becton Dickinson).
Thus, involvement of IL-1β in the TSLP-dependent in vivo model was evaluated. The availability of IL-1β in the xenograft mice model was first evaluated. HS-578t cells were injected subcutaneously into the flank of irradiated NOD/SCID/β2 m^−/− mice. MDDCs plus autologous total T cells were injected intratumorally on D3,6, and 9 after tumor cells injection (FIG. 15A). […] Th2 cytokines were measured by Luminex in the culture sups (FIG. 8B).

The conditions of series [1]: 100 mg daily SC; cited from earlier work.
The subject of series [2] is Hs-578t breast cancer cells. The series is described as follows: Tumor growth of Hs-578t xenograft in irradiated NOD/SCID/β2m−/− mice reconstituted with DCs and T cells. The series is classed as in vivo. The protocol: as §1
Thus, involvement of IL-1β in the TSLP-dependent in vivo model was evaluated. The availability of IL-1β in the xenograft mice model was first evaluated. HS-578t cells were injected subcutaneously into the flank of irradiated NOD/SCID/β2 m^−/− mice. MDDCs plus autologous total T cells were injected intratumorally on D3,6, and 9 after tumor cells injection (FIG. 15A). When tumors grew to 100-150 mm^3 in volume, mice were sacrificed and tumors were frozen in OCT for tissue staining. Similar with what observed in patient primary tumors (FIG. 5), IL-1β^+ cells also infiltrated in the tumor of xenograft model (FIG. 15B). […] Then we tried to understand whether TGF-β or IL-1β blocking could affect tumor growth through affecting the availability of IL-1β. Anti-TGF-β neutralizing antibody, isotype antibody as control, IL-1R antagonist Anakinra, or anti-TSLPR neutralizing antibody were each injected together with DC plus T cells (FIG. 15A). […] In some experiments, small pieces of tumor tissue from mice were cultured for 16 hours in the presence of PMA and ionomycin. Th2 cytokines were measured by Luminex in the culture sups (FIG. 8B).

A further series concerns CD4^+CD3^+T cells. The series is described as follows: Intracellular cytokine FACS of CD4+CD3+ T cells from xenograft tumors. The series is classed as in vivo, mice. As for the experimental part: as §1
To confirm whether the decreased IL-13 level is due to less infiltration of IL-13 producing cells, single cell suspensions were prepared from the tumors harvested from both the PBS and the Anakinra treatment groups. Intracellular staining for cytokines including IL-13, IL-4, TNF-α, and IFN-γ were combined with CD4, CD3 surface staining. Cells were analyzed by FACS, and gated on viable CD4^+CD3^+T cells. […] In the PBS group, about 10.2-46.4% of CD4^+CD3^+T cells express IL-13. […]

For series [3] the following is noted: pediatric patients with SOJIA; cited from earlier work.
In a further series the target is T1, caspase-1 (Homo sapiens, UniProt P29466).
T1 construct: MDA-MB231 cells and mDCs were co-cultured in chamber well; endogenous in cells; host or cells: human blood mDCs co-cultured with MDA-MB231 cells
T1 sequence (P29466 120-297 limits assumed): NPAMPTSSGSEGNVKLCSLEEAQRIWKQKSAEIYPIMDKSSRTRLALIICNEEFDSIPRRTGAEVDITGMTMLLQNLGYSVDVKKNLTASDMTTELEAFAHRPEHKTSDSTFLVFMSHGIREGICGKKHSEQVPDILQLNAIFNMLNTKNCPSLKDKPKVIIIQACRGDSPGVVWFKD
T1 sequence (P29466 317-404 limits assumed): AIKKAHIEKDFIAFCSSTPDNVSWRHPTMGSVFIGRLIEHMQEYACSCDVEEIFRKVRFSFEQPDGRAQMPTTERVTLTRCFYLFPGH
Kind of series: MDA-MB231/mDC co-culture with caspase-1 inhibitor: proIL-1β and mature IL-1β staining. It counts as cell-based. As for the experimental part: In most cases, caspase-1 is needed for proteolytic cleavage and secretion of mature IL-1β. It was tested whether TGF-β-dependent IL-1β production also required the activation of caspase-1. MDA-MB231 cells and mDCs were co-cultured in chamber well in presence of 1 uM of caspase-1 inhibitor or DMSO as vehicle control. 18 hours later, cells were fixed and stained with specific antibody against pro-peptide of IL-1β (FIG. 7A), or mature IL-1β (FIG. 7B), both accompanied with HLA-DR staining. […] Four areas were counted for the percentage of proIL-1β^+ cells within HLA-DR^+ cells for both DMSO or caspase-1 inhibitor treated wells. Almost 95% of mDCs show accumulation of proIL-1β intracellularly, while only around 50% of mDCs express proIL-1β (FIG. 7A right panel). Using a similar experimental system, mature IL-1β production in presence or absence of caspase-1 inhibitor was also measured.

The subject of series [4] is HS-578t or MDA-MB231 cells. The series is described as follows: TSLP induction in breast cancer cell lines by cytokines (real-time PCR, Luminex). It counts as cell-based, human. To be noted: for TSLP mRNA level by quantitative real-time PCR: HS-578t and MDA-MB231 cells, 10 ng/ml, as early as 2 hours. The protocol: […] For tumor cells and mDCs coculture experiment, 100 k tumor cells were seeded in 24 well plate to grow overnight, then media was refreshed and 100 k mDCs were added to coculture for another 24-72 h. For the transwell experiment, 24-well-plate with inserts were used (Corning). 200K tumor cells were seeded in the plate to grow at least overnight, then 200 k mDCs were added into inserts. After 48 h of co-culture, supernantants were harvested to determine IL-1β level by ELISA (Duoset, R&D System).
Samples were treated and lysed with Buffer RLT, and then stored at −80° C. until RNA extraction. Total RNA was isolated and purified from each sample by using RNeasy kit and RNase-free DNase (Qiagen) according to the manufacturer's instructions. cDNA was generated from total RNA with iScript™ cDNA Synthesis Kit. The resulting cDNA was then used for quantitative gene expression analysis on a Sequence Detection System 7,500 (Applied Biosystems). The primers used were as follows: human (h)TSLP, 5′-[…]-3′ (SEQ ID NO:41) and 5′-[…]-3 (SEQ ID NO:42), and human (h)IL-1β, 5′-[…]-3′ (SEQ ID NO:43) and 5′-[…]-3′ (SEQ ID NO:44), human (h) GAPDH, 5′-[…]-3′ (SEQ ID NO:45) and 5′-[…]-3′ (SEQ ID NO:46), human (h) ABL1, 5′-[…]-3′ (SEQ ID NO:47) and 5′ […]-3′ (SEQ ID NO:48), human (h) PGK1, 5′-[…]-3′ (SEQ ID NO:49) and 5′-[…]-3′ (SEQ ID NO:50), human (h) PES1, 5′-[…]-3′ (SEQ ID NO:51) and 5′-A […]-3′ (SEQ ID NO:52). Equal amounts of cDNA were used with the iTaq SYBR Green Supermix with ROX (Bio-Rad) and primer mix according to the real-time PCR protocols supplied by the manufacturer. Amplification efficiencies were validated against the housekeeping gene, GAPDH, PES1, and ABL1. […] The relative quantification of target gene expression was done by the comparative cycle threshold (CT) method. […]
Different pro-inflammatory cytokines have the potential to induce TSLP from keratinocytes, both transcriptionally and translationally. […] Cells were harvested and TSLP mRNA levels were measured by quantitative real-time PCR (FIG. 4A). […] TSLP levels in the culture supernatants were determined by Luminex. […]
(In qPCR the cycle at which signal appears reflects the starting amount.)

Setting [5] is: xenograft model, summary statement.
[6] abbreviates: tumors harvested from Anakinra treatment group.

Consider “Anakinra: recombinant soluble non-glycosylated homolog of the human interleukin-1 receptor antagonist (IL-1Ra)”, for which, in the series with Th2 cytokines, the “IL-4 in tumor tissue culture sups” value is “less IL-4”, the “IL-13 in tumor tissue culture sups” value was “less IL-13” and the “TSLP production in tumor tissue” value is listed as “less TSLP production”. In series [1], the “most common adverse reaction” value is listed as “injection site reaction” and the safety profile entry is “favorable safety profile”. Besides, in series [2] (day 16, Anakinra 2 mg/kg daily peritumoral since day 3), the “tumor volume (mean)” value was determined as 13 mm^3. Further, the “tumor volume increase in PBS group compared to the Anakinra group” value in series [2] (end of the observation, day 16) was about 10 fold. Further, the “OX40L+ expression on DCs” value in series [2] (in vivo) is given as “blocks OX40L+ expression on DCs”. Moreover, the “tumor growth in vivo” value in series [2] (setting [5]) is reported as “prevents tumor growth in vivo”. Besides, in the series with CD4^+CD3^+T cells (setting [6]), the “CD4^+CD3^+T cells expressing IL-13” value is 0.39-2.5%; the “effect on TNF-α and IFN-γ in CD4^+CD3^+T cells” value was “no specific effect on TNF-α and IFN-γ”. In the series with CD4^+CD3^+T cells (setting [5]), the “iTh2 generation in vivo” value is reported as “blocks iTh2 generation in vivo”. Also, the “patients with remarkable clinical and hematological responses” value in series [3] was > 70 % of patients.
On to Cbz-WEHD-CH2F [caspase-1 inhibitor], for which, at caspase-1 (1 uM caspase-1 inhibitor, MDA-MB231 cells and mDCs co-cultured 18 hours), the “percentage of proIL-1β+ cells within HLA-DR+ cells” value is about 95%. Also, at caspase-1 (caspase-1 inhibitor, MDA-MB231 cells and mDCs co-culture), the “mature IL-1β staining” value is “less mature IL-1β was detected”.
Turning to IL-1β: cytokine obtained from R&D, the “TSLP mRNA level by quantitative real-time PCR” value in series [4] was “induce significant TSLP transcription”. The “TSLP levels in the culture supernatants (Luminex)” value in series [4] (MDA-MB231 cells, different doses, 48 hours) was “induce TSLP production in a dose-dependent manner”.

B1: IL-1α: cytokine obtained from R&D (protein, UniProt P01583 113-271, looked up)
Interleukin-1 alpha: SAPFSFLSNVKYNFMRIIKYEFILNDALNQSIIRANDQYLTAAALHNLDEAVKFDMGAYKSSKDDAKITVILRISKTQLYVTAQDEDQPVLLKEMPEIPKTITGSETNLLFFWETHGTKNYFTSVAHPNLFIATKQDYWVCLAGGPPSITDFQILENQA
For B1, in series [4], the “TSLP mRNA level by quantitative real-time PCR” value is given as “induce significant TSLP transcription”.

(Values after US10023841B2, “Methods and compositions for treating breast cancer with dendritic cell vaccines” (Baylor Research Institute, priority 2014, dated 2018).)
